Entries after “also recorded” stand apart in the source; their conditions may differ.
Assays:
[1] = tested on: rats with PAN-induced NS; assay: PAN-induced nephrotic syndrome rat model, urine protein-to-creatinine ratio; format: in vivo; details: for Urine protein to creatinine ratio (UPCR): day 11 after single PAN dose 50 mg/kg IV, MP 15 mg/kg i.p. daily, Pio 10 mg/kg oral gavage daily, n=4 rats per group
Description: (§1) Proteinuria was induced in male Wister rats (body weight[…], age˜45-50 d) by single tail vein injection of Puromycin aminonucleoside (PAN, #P7130, Sigma; St. Louis, Mo.) −50 mg/kg, n=4 on Day 0, while the control group received saline injection (n=4). PAN-induced proteinuria was treated daily with methylprednisolone (15 mg/kg, n=4, Solu-Medrol; Pfizer Inc., New York, N.Y.) via intraperitoneal injection or with pioglitazone (10 mg/kg, Actos; Takeda, Deerfield, Ill.) via oral gavage until day 11 of post PAN-injection. Morning spot urine samples were collected on Day 0 (before PAN injection) and day 11 for urinary protein: creatinine ratio (UPC) analysis. Kidneys were harvested at day 11 and were processed for glomerular isolation.
UPC was measured by Antech Diagnostics (Morrisville, N.C.) using standard techniques that are fully compliant with Good Laboratory practice regulations. See Agrawal et al., Sci Rep 6, 24392 (2016)

[2] = tested on: glomerular genes; assay: RNA sequencing of glomeruli isolated from PAN-NS rats (glomerular transcriptome); format: in vivo, rat
Description: as §1
Glomeruli were isolated using sieving method where kidney cortex was pared using curved scissors into the petri lid with cold PBS, minced well, drained and washed onto pre-moistened No. 80 sieve. Using squeeze bottle, minced kidneys on No. 80 sieve were washed thoroughly and transferred to No. 140 sieve. No. 140 and 200 are stacked together to catch smaller material. Kidney material was then ground through No. 140 sieve with very gentle pressure using bottom of cold round 250 ml beaker. The ground kidney was washed back and forth well over sieve No. 140 onto No. 200. This catch material is the glomeruli. The glomeruli were washed with cold PBS to get rid of any contaminants and the final washed material was collected into labeled 50 ml conical tube. The tube was spun at ˜1500 rpm for 3 min Glomeruli precipitate was then suspended in RLT buffer (Qiagen, Germantown, Md.) containing β-mercaptoethanol (#M6250 Sigma).
Total RNA from the isolated glomeruli was isolated using the RNeasy mini Kit (Qiagen) according to the manufacturer's instructions. The purity and yield of RNA was determined by measuring the absorbance at 230, 260 and 280 nm. Briefly, 1 ug of RNA was subjected to DNase (Ambion, Thermo Fisher Scientific) digestion at 37° C. for 30 min followed by DNase inactivation with 5 mM EDTA at 75° C. for 10 min.
RNA quality was assessed using the Agilent 2100 Bioanalyzer and RNA Nano Chip Kit (Agilent Technologies, CA) to ensure that the RNA Integrity Number (RIN) was ≥7. RNA-seq libraries were then generated using TruSeq Standard total RNA with Ribo-Zero Globin Complete kit (Illumina, CA). Briefly, ribosomal RNA (rRNA) was removed from 350 ng of total RNA with biotinylated, target-specific oligos combined with Ribo-Zero rRNA removal beads from the Human/Mouse/Rat Globin kit. To generate directional signals in RNA seq data, libraries were constructed from first strand cDNA using ScriptSeq™ v2 RNA-Seq library preparation kit (Epicentre Biotechnologies, WI). Briefly, 50 ng of rRNA-depleted RNA was fragmented and reverse transcribed using random primers containing a 5′ tagging sequence, followed by 3′ end tagging with a terminal-tagging oligo to yield di-tagged, single-stranded cDNA. Following purification using a magnetic bead-based approach, the di-tagged cDNA was amplified by limit-cycle PCR using primer pairs that anneal to tagging sequences and add adaptor sequences required for sequencing cluster generation. Amplified RNA-seq libraries were purified using AMPure XP System (Beckman Coulter). The quality of libraries was determined via Agilent 2200 TapeStation using High Sensitivity D1000 tape, and quantified using Kappa SYBR®Fast qPCR kit (KAPA Biosystems, Inc, MA). Approximately, 90-125 million paired-end 150 bp reads were generated per sample using the Illumina HiSeq4000 platform. Raw data were converted to FASTQ using Illumina's bc12fastq application. Sequencing adapters matching at least 6 bases were then removed from the reads, as well as low-quality bases (<10) using v1.10 of cutadapt. […]

[3] = tested on: human podocyte cell line (MS13); assay: Real-time PCR of 17 genes-of-interest in PAN-exposed human podocyte cell line; format: cell-based; details: PAN 2.5 and 5 μg/ml, 24 h and 48 h
Description: (§2) The conditionally immortalized human podocyte cell line (MS13) and human primary mesangial cells were cultured as previously described. Sharma et al., J Am Soc Nephrol 28, 2618-2630 (2017). 3×10^4 undifferentiated podocytes were plated on a 6-well plate and were incubated at 37° C. for 12-14 days prior to the start of experiment whereas 1×10^5 mesangial cells were plated on a 6-well plate a day prior to start of experiment. Further, podocytes and mesangial cells were serum starved 0/N with 1% FCS containing RPMI media, before the experiment. The following day, podocytes were exposed to 2.5 and 5 μg/ml of PAN for 24 and 48 hrs whereas in case of mesangial cells, 5 μg/ml of PAN (Sigma; St. Louis, Mo.) was added for 24 and 48 hrs. Cells were lysed in 400 μl of RNA lysis buffer provided by Ambion (#AM1560).
(§3) Total RNA from the cultured podocytes and mesangial cells was isolated using the miRVANA miRNA isolation kit (Ambion, ThermoScientific) according to the manufacturer's instructions. The RNA was eluted in 40 μl of nuclease free water. The purity and yield of RNA was determined by measuring the absorbance at 230, 260 and 280 nm. Briefly, 1 μg of RNA was subjected to DNase (Ambion, Thermo Fisher Scientific) digestion at 37° C. for 30 min followed by DNase inactivation with 5 mM EDTA at 75° C. for 10 min.
(§4) […] of total isolated RNA was reverse transcribed to cDNA by iScript cDNA synthesis kit according to manufacturer's instructions (#1708890. Bio-Rad). The resulting cDNA was diluted to 1:5 with nuclease free water. Diluted cDNA was finally used for relative mRNA quantitation of 17 targets-of-interest using SYBER green based Bio-Rad CFX96 Real-Time PCR machine (Bio-Rad Labs, Hercules, Calif.). Both RPL19 and PPIA were used as reference genes.

[4] = tested on: human primary mesangial cells; assay: Real-time PCR of 17 genes-of-interest in PAN-exposed human primary mesangial cells; format: cell-based; details: PAN 5 μg/ml, 24 h and 48 h
Description: as §2, §3, §4

[5] = tested on: rats with PAN-induced NS; details: earlier study, Agrawal et al., Sci Rep 6, 24392 (2016); cited from earlier work
[6] = PAN-NS glomeruli, day 11, FDR<0.05, of 1,872 DEGs
[7] = overlap analysis, common to both treatments

Structure (SMILES): CN(C)c1ncnc2c1ncn2[C@@H]1O[C@H](CO)[C@@H](N)[C@H]1O [PAN, Puromycin aminonucleoside]
- Urine protein to creatinine ratio (UPCR) [1]: 57.2 ± 41.6 mg/mg
- number of glomerular genes significantly downregulated compared to healthy controls [2, 6]: 858
- number of glomerular genes significantly upregulated compared to healthy controls [2, 6]: 1,014
- CPT1B, PDK4, ANGPTL4, TAGLN and CDKN1A mRNA expression [3]: significant increase in expression
- SERPINE1, MMP14, CCL2, LIF, BIRC5 mRNA expression [3]: did not follow the expected pattern
- LGALS3 mRNA expression ([3]; P=0.0003 vs. controls): induction of expression; also recorded: exclusively enhanced
- CPT1B, PDK4, ANGPTL4, TAGLN and CDKN1A mRNA expression [4]: significant increase in expression
- SERPINE1, MMP14, CCL2, LIF, BIRC5 mRNA expression [4]: did not follow the expected pattern
- MMP2 mRNA expression ([4]; P=0.007 vs. controls): induced; also recorded: markedly upregulated
- ACTA2 mRNA expression ([4]; P=0.045 vs. controls): induced; also recorded: markedly upregulated

Structure (SMILES): CCc1ccc(CCOc2ccc(CC3SC(=O)NC3=O)cc2)nc1 (stereo not shown) [Pio, pioglitazone]
- reduction of proteinuria (UPCR) vs PAN ([1]; day 11, PAN+MP or PAN+Pio vs PAN): 94%
- Urine protein to creatinine ratio (UPCR) [1]: 3.45 ± 0.82 mg/mg
- effect on transcriptional profiles of endothelial cell-specific genes ([2]; 42 endothelial genes): neither MP nor Pio treatment had notable effects
- PAN-induced gene expression alterations in podocyte- and mesangial cell-specific gene clusters ([2]; 66 podocyte and 43 mesangial genes, PCA plots): substantially reversed
- number of the 858 glomerular genes downregulated in PAN-NS significantly ameliorated ([2]; FDR<0.05 vs PAN): 144
- number of the 1,014 glomerular genes upregulated in PAN-NS significantly ameliorated ([2]; FDR<0.05 vs PAN): 346
- share of the 858 glomerular genes downregulated in PAN-NS significantly ameliorated ([2]; FDR<0.05 vs PAN): 17%
- share of the 1,014 glomerular genes upregulated in PAN-NS significantly ameliorated ([2]; FDR<0.05 vs PAN): 34%
- PAN-induced dysregulation of glomerular gene sets associated with extracellular matrix and cyclins (GSEA) ([2]; GSEA, FDR<0.05): significantly ameliorated
- number of DEGs significantly induced by PAN but ameliorated by both MP and Pio [2, 7]: 319
- number of DEGs significantly suppressed by PAN but ameliorated by both MP and Pio [2, 7]: 126
- proteinuria in PAN-induced rat model of NS, previously reported [5]: significantly reduced proteinuria; also recorded: significant proteinuria reduction
